According to patent publication US8961959B2, “Glucosylceramide synthase inhibitors and therapeutic methods using the same” (The Regents of the University of Michigan, priority 2011, dated 2015):
Entries after “also recorded” stand apart in the source; their conditions may differ. Where two headings read alike, the source gives them in different places.

Key:
[1] = tested on: MDR1-MDCKII cells; test: GCS inhibition (GlcCer production) in MDCKII cells stably expressing human MDR1; assay type: cell-based, canine; conditions: for IC50: Canis lupus familiaris
Method: Parental (WT-)MDCKII cells and MDCKII cells retrovirally transduced with human MDR-1 cDNA were obtained from the Netherlands Cancer Institute. Both cell lines were routinely maintained in medium consisting of Opti-MEM/F 12 (1:1), 5% FBS, 100 U/mL of penicillin, 100 μg/mL streptomycin and […] L-glutamine. MDCKII cells were newly thawed from frozen ampules every two months.
Stock solutions of water-insoluble glycosphingolipid inhibitors (100 mM) were prepared by dissolving each inhibitor into 100% ethanol as previously described (3). The inhibitor-ethanol solutions then were diluted 50× into 2 mM delipidated bovine serum albumin-phosphate buffered saline solution to make water-soluble glycosphingolipid inhibitor-bovine serum albumin complexes. The inhibitor-bovine serum album complexes were sterile-filtered and stored at −20° C. Prior to use, portions of the inhibitor-bovine serum albumin complexes were further diluted with Opti-F12 to make treatment solutions. Equal amounts of bovine serum albumin and ethanol were added into the control cultures. WT and MDR1-MDCKII cells (5×10^5) were seeded into 10-cm culture dishes containing 10 ml of Opti-F12 with 5% FBS. […]
Following inhibitor treatment, whole cellular lipids of wild type and MDR1-MDCKII cells were extracted as previously described in detail (10). Briefly, cells were washed with ice-cold phosphate buffered saline, fixed by methanol, and collected with rubber scraper. Chloroform was then added to yield a theoretical ratio of chloroform:methanol:water at 1:2:0.8 (v/v/v) to form a mono-phase. Cell debris and proteins were removed by centrifugation at 2200×g for 30 min. The supernatants were portioned by adding chloroform and 0.9% NaCl. The lower organic phases containing neutral glycosphingolipids lipids were washed with methanol and 0.9% NaCl, and subjected to base- and acid-hydrolysis (10). A portion of purified glycosphingolipids normalized to 100 nmol of total phospholipids was analyzed by high performance thin layer chromatography. The thin layer chromatography separations were processed twice. The plate pretreated with 1% sodium borate was first developed in a solvent system consisting of chloroform/methanol (98/2, v/v). After air drying, the plate was then developed in a solvent system containing chloroform/methanol/water (70/30/4, v/v/v). The levels of glucosylceramide were detected by charring with 8% cupric sulfate in 8% phosphoric acid, and quantified by densitometric scanning using ImageJ, NIH Image.

[2] = molecular target: T1, MDR1 (Homo sapiens, UniProt P08183); test: [3H]Vinblastine transport in MDR1-MDCKII cells; assay type: cell-based; conditions: for [3H]vinblastine uptake into MDR1-MDCKII cells: 1-100 μM, 2 h, relative to vehicle
T1 construct: host or cells: MDCKII (canine kidney) cells retrovirally transduced with human MDR-1 cDNA
T1 sequence (P08183 whole entry): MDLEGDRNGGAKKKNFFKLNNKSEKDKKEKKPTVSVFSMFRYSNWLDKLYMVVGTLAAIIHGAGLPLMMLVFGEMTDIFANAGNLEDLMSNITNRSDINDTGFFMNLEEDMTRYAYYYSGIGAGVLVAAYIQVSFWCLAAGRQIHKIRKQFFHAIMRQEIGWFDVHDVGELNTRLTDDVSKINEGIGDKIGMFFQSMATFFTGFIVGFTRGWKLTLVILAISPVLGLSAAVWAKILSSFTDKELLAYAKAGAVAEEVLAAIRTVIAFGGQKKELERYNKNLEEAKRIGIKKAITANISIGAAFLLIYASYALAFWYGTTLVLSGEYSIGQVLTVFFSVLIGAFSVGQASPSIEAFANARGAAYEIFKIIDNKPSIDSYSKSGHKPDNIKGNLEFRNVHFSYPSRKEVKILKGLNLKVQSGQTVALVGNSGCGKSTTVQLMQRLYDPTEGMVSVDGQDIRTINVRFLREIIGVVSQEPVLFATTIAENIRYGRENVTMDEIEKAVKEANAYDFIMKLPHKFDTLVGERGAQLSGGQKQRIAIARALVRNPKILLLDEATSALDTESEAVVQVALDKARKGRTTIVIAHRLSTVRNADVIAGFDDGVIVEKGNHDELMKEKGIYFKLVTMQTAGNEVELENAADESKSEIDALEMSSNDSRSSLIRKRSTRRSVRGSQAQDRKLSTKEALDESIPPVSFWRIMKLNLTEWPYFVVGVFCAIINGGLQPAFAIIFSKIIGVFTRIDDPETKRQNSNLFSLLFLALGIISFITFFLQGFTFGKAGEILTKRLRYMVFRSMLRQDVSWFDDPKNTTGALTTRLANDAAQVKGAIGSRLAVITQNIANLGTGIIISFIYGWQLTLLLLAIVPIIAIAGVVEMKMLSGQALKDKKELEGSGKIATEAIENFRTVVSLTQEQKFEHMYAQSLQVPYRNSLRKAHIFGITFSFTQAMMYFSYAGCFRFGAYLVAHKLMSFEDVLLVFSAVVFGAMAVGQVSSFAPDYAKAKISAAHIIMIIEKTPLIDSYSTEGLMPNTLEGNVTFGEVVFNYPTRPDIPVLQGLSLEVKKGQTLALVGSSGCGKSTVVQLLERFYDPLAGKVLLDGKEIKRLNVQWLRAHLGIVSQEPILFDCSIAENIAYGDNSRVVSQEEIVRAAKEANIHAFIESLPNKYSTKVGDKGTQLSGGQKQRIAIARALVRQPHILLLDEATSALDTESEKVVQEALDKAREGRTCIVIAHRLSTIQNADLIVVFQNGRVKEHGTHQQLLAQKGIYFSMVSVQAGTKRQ
Method: MDR1- and WT-MDCKII cells were grown to confluence on Transwell filters (12 well plates) in DMEM+10% FBS. […] Uptake was measured over 2 hours at 37° C. At that time, uptake was stopped by washing each side of the membrane 3× with ice-cold PBS. Vinblastine uptake into the cells, after correction for any remaining adherent extracellular contamination, was calculated as described previously (11). To investigate the effect of experimental drugs on MDR-mediated transport, those compounds were added to the apical chamber (1-100 μM) during vinblastine uptake and the uptake results expressed as a % of that with vehicle alone.

[3] = tested on: C57BL/6 mice; test: Organ GlcCer content in C57BL/6 mice after short term i.p. dosing; assay type: in vivo, mouse; conditions: for change in brain GlcCer levels: 10 mg/kg/day i.p. for 3 days, 12 h after last injection; for fall in brain GlcCer levels: 30 mg/kg q 12 h for 3 days i.p.; for liver and kidney GlcCer levels: i.p. 3 days; for brain GlcCer content, short term dosing: i.p. for 3 days, in words
Method: C57BL/6 mice were maintained on regular chow in specific-pathogen-free facilities. All animal studies were performed under the review of the University of Michigan Committee on the Use and Care of Animals and conformed to the National Institutes of Health Guide for the Care and Use of Laboratory Animals. Injection solutions were prepared from inhibitor-ethanol stock solution (100 mM) A portion of the stock solution was evaporated under a stream of N2 gas. Dried eliglustat tartrate (compound 3a) was directly dissolved into 1× phosphate buffered saline. […] The acidic solution was neutralized by mixing 100 μL of 10× phosphate buffered saline with 636.3 μL of water to bring the total volume to one ml. Inhibitor solutions were sterilized by passage through a […]. Inhibitor recovery after filtration was confirmed by UV spectrometry and exceeded 99%. For control injections, phosphate buffered saline containing the same amount of HCl was used. Inhibitors were given to 6 to 8 week old female or male C57BL/6 mice by intraperitoneal injection volume at 1% of body weight.
Lipid extractions of liver, kidney, and brain were performed as previously described (7). Briefly, frozen liver (about 0.5 g), two kidneys (about 0.3 g) and whole brain (about 0.4 g) were individually homogenized in sucrose buffer (250 mM sucrose, pH 7.4, 10 mM HEPES and 1 mM EDTA), at 0.2 g tissue/1 mL of sucrose buffer, with a Tri-R homogenizer. Each 0.8 mL of homogenate was mixed with 2 mL of methanol and 1 mL of chloroform, bath sonicated for 1 min and incubated at room temperature for 1 h. Tissue debris were removed by centrifugation at 2,400×gravity for 30 min. The pellets were re-extracted by mixing with 1 mL of methanol, 0.5 mL of chloroform and 0.4 mL of 0.9% NaCl (chloroform/methanol/0.9% NaCl, 1:2:0.8), incubated at room temperature for 1 h and centrifuged at 2,400×gravity for another 30 min. Two extracts were combined and mixed with 4.5 mL of chloroform and 1.2 mL of 0.9% NaCl (chloroform/methanol/0.9% NaCl, 2:1:0.8). After centrifugation at 800×gravity for 5 min, lower layer was washed with 3 mL of methanol and 2.4 mL of 0.9% NaCl. Second washing was carried with 3 mL of methanol, 2 mL of water and 0.4 mL of 0.9% NaCl followed by a 5 min centrifugation at 800×gravity. The resultant lower phase was collected and dried under a stream of N2 gas.
The analysis of neutral glycosphingolipids from mouse liver, kidney, and brain was processed after alkaline methanolysis. […] lipids were incubated with 2 mL of chloroform and 1 ml of 0.21N NaOH in methanol for 2 h (kidney) or 7.5 h (liver and brain) at RT. The lipid extract was normalized to 0.5 μmol of total phospholipid phosphate (liver and kidney) or 2 μmol of total phospholipid phosphate (brain) for high performance thin layer chromatography analysis. After alkaline methanolysis, the brain lipids were passed through a silica gel column (7). Borate-impregnated thin layer chromatography plates were developed in a two solvent system. Plates were first developed in chloroform/methanol (98:2, v/v). The plates loaded with kidney and liver lipids were then developed in chloroform/methanol/water (64:24:4, v/v/v), and brain lipids were further separated in chloroform/methanol/water (60:30:6, v/v/v). GlcCer levels were quantified by comparison to known standards.

SMILES	IC50 ([1]; MDR1-MDCKII cells, 24 h, read-out: IC50 for reduction in GlcCer levels, MDR1 expressing cells) [µM]	MDR/WT ([1]; ratio of MDR1-MDCKII IC50 divided by WT-MDCKII IC50)	[3H]vinblastine uptake into MDR1-MDCKII cells [2]	change in brain GlcCer levels [3]	fall in brain GlcCer levels [3]	liver and kidney GlcCer levels [3]	liver and kidney GlcCer levels ([3]; listed as eliglustat)	brain GlcCer content, short term dosing [3]	brain GlcCer content, short term dosing ([3]; listed as eliglustat tartrate)	IC50 ([1]; inhibition of GlcCer production in MDCKII cells stably expressing human MDR1, 24 h, read-out: MDR-MDCK IC50) [µM]	interaction with / recognition by MDR1 ([2]; assessed by GCS IC50 shift and vinblastine uptake assays)
CCCCCCCC(=O)N[C@H](CN1CCCC1)[C@H](O)c1ccc2c(c1)OCCO2 [Compound 3a, N-((1R,2R)-1-(2,3-dihydrobenzo-[b][1,4]dioxin-6-yl)-1-hydroxy-3-(pyrrolidin-1-yl)propan-2-yl)octanamide, reference compound]	0.0317	2.3	dose-dependent increase	without changes	without any changes	significantly lowered	lowered	failed to demonstrate any change	an effect not seen		
O=C(CC1Cc2ccccc2C1)N[C@H](CN1CCCC1)[C@H](O)c1ccc2c(c1)OCCO2 [Compound 3h, 2-(2,3-dihydro-1H-inden-2-yl)-N-((1R,2R)-1-(2,3-dihydrobenzo[b][1,4]dioxin-6-yl)-1-hydroxy-3-(pyrrolidin-1-yl)propan-2-yl)acetamide]			no significant dose dependent change	ten percent decrease	17%			significant dose dependent decrease; also recorded: significantly lowered		0.0243	little to no apparent recognition by MDR1; also recorded: least interaction with MDR
